Data published in paper PMC6767236, “Selective Cannabinoid 2 Receptor Agonists as Potential Therapeutic Drugs for the Treatment of Endotoxin-Induced Uveitis” (Molecules, 2019).
Entries after “also recorded” stand apart in the source; their conditions may differ. Where two headings read alike, the source gives them in different places. Marks after values point to notes of the source that are not given here.

Experiments:
human CB2R = target: T1, human CB2R (Homo sapiens, UniProt P34972); settings: cited from earlier work; for EC50: read-out: hCB2R: cAMP EC50; for hCB1R cAMP EC50/hCB2R cAMP EC50: functional selectivity
T1 construct: bgal (beta-galactosidase fragment of the PathHunter system, named only in the cell line's name); host or cells: CHO-K1 (CHOK1hCB2_bgal)
T1 sequence (P34972 whole entry, the tested form may be a part): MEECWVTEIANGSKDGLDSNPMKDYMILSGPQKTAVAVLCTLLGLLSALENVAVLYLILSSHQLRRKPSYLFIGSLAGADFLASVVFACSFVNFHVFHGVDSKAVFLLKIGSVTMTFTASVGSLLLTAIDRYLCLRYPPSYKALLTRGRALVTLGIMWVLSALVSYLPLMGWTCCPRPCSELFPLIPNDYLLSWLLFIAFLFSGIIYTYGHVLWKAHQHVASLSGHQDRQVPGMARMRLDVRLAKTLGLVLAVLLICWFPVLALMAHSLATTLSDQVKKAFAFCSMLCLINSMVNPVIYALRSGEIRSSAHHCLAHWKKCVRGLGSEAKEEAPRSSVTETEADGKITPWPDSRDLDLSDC

mouse CB2R = mouse CB2R (Mus musculus, UniProt P47936); assay: cell-based; type: cell-based; design: bgal (beta-galactosidase fragment of the PathHunter system, named only in the cell line's name); host or cells: CHO-K1 (CHOK1mCB2_bgal)
Chain of mouse CB2R (P47936 whole entry, the tested form may be a part): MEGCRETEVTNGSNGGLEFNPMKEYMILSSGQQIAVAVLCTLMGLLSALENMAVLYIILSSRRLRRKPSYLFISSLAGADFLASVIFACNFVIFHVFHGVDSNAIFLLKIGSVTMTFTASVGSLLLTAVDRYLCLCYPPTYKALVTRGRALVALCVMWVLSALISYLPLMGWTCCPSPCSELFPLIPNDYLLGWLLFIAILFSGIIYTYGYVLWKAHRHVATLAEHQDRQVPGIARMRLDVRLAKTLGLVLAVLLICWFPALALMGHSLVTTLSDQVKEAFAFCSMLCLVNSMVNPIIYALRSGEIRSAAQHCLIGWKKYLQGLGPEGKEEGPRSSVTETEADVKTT
Description: Assays were carried out using the PathHunter hCB1_bgal, hCB2_bgal, or mCB2_bgal CHOK1 β-arrestin recruitment assay kit (DiscoveRx, Fremont, CA, USA) as previously described. A total of 5000 cells per well were seeded in 384-well plates (Perkin Elmer, MA, USA) containing 20 μL cell culture medium and incubated for 16–18 h at 37 °C and 5% CO2. Cells were stimulated with 10 μM of each agonist or 11 increasing concentrations and incubated for 90 min at 37 °C and 5% CO2. […] The cells were incubated for 90 min at 37 °C and 5% CO2. Compounds in DMSO stock solutions were added using a HP D300 Digital Dispenser (Tecan, Mannedorf, Switzerland). The final concentration of organic solvent per assay point was ≤ 0.1%. The PathHunter Detection mixture was used, according to the manufacturer’s protocol, to determine the β-galactosidase enzyme activity. Detection mixture, 12 μL per well, was added and the plate was incubated for 1 h in the dark at room temperature. Chemiluminescence, indicated as relative light unit, was measured on an EnVision multilabel plate reader (Perkin Elmer, MA, USA).

[1] = system: leukocyte-endothelial interactions in the iridial microcirculation; assay: Endotoxin-induced uveitis (EIU), intravital microscopy of iridial microcirculation, WT mice; type: in vivo, BALB/c mice; settings: for adherent leukocytes in the iridial microcirculation: WT mice; for Rolling leukocytes per min: LPS + topical 1.5% w/v, mean ± SD, n = 6
Description: EIU was induced in BALB/c mice using an intravitreal injection of LPS (2 μL; 125 ng/μL; E. coli 0111:B4 L084M4118V; Sigma-Aldrich, Oakville, ON, Canada) in saline,. Animals were anesthetized with isoflurane (4% induction, 2% maintenance), and were injected intravitreally through the pars plana with sterile saline (control) or LPS solution using a 30G needle and Hamilton syringe (Hamilton Company, Reno, NV, USA) with the assistance of a WILD M37 dissecting microscope (Leitz Canada, Kitchener, ON, Canada). The puncture wound was glued shut with 3M Vetbond Tissue Adhesive (3M Animal Products, St. Paul, MN, USA), and animals were allowed to recover.
IVM was conducted as previously described in Toguri et al. (2014). The iridial microcirculation was imaged 6 h after induction of EIU. Animals were anesthetized with pentobarbital (i.p., 54 mg/kg). Fifteen minutes before initiating IVM, 0.05% Rhodamine 6G (1.5 mL/kg; Sigma-Aldrich) was injected intravenously (i.v.) to visualize leukocytes within the vasculature, while 5% fluorescein isothiocyanate (FITC) conjugated albumin (i.v., 1 mL/kg; Sigma-Aldrich) was used to visualize blood flow. The iridial microcirculation was observed using an Olympus OV100 Small Animal Imaging System (Olympus, Tokyo, Japan), which contains an MT-20 light source, fluorescence excitation from a xenon lamp (150 W) and an excitation filter for rhodamine-6G (excitation 515–560 nm, emission 590 nm). Images were captured in real-time by a black and white DP70 CCD C-mount camera and digitally recorded using HCImage software (Hamamatsu, Herrsching, Germany).
During IVM animals were placed on a heating pad in a stereotactic frame, and Tear-Gel® (Novartis Pharmaceuticals Canada Inc., Dorval, QC, Canada) was applied to their cornea. The iris was divided into four equal quadrants by drawing two superficial lines on the cornea, lengthwise and widthwise. IVM was carried out in each of these quadrants. Two to four videos of each quadrant were recorded for 30 s each. Videos were analyzed off-line without knowledge of the treatment groups. […] Using ImageJ software (National Institute of Health, Bethesda, MD, USA) the number of adherent leukocytes within each vessel segment was calculated by measuring the diameter and length of vessel segment studied, assuming a cylindrical geometry of blood vessels. Adherent leukocytes were expressed as number of cells per mm^2 of endothelial surface. Rolling leukocytes were classified as cells that moved along the endothelium and crossed a predetermined cross-sectional line of the venule. The number of rolling leukocytes was counted for 30 s and used to calculate the number of rolling leukocytes per min. IVM was conducted 6 h after induction of EIU.
RO6871304, RO6871085, or RO6851228 were applied topically on the left eye (1.5% w/v; 5 μL/animal)) directly after injection of LPS in the same eye. Control animals received vehicle (Tocrisolve) (5 μL/animal) only. HU910 was dissolved for i.v. administration in mixed micelles.

[2] = relative to 1 µM CP55940, * previously published
[3] = underlying data previously published
[4] = topical 1.5% w/v (5 µL/animal), 6 h after intravitreal LPS, vs LPS + vehicle
[5] = read-out: mouse CB2R: beta arrestin EC50

SMILES	hCB2R: cAMP efficacy (human CB2R; [2]) [%]	functional behaviour in hCB2R cAMP assay (human CB2R; [3])	EC50 (mouse CB2R) [nM]	mouse CB2R: beta arrestin efficacy (mouse CB2R) [%]	adherent leukocytes in the iridial microcirculation ([1]; 3.0 mg/kg i.v. in mixed micelles, 6 h after LPS, vs LPS + vehicle (p < 0.01))	adherent leukocytes in the iridial microcirculation [1, 4]	functional behaviour in hCB2R cAMP assay (human CB2R)	hCB2R: cAMP efficacy (human CB2R)	EC50 (human CB2R) [nM]	hCB2R β-arrestin EC50/mouse CB2R β-arrestin EC50 (mouse CB2R)	EC50 (mouse CB2R; [5]) [nM]	Rolling leukocytes per min ([1]; 6 h after intravitreal LPS) [per min]	EC50 (human CB2R; * previously published) [nM]	hCB1R cAMP EC50/hCB2R cAMP EC50 (human CB2R; * previously published)	activity in mouse CB2R β-arrestin assay (mouse CB2R)
CCCCCCC(C)(C)c1cc(OC)c([C@H]2C=C(CO)[C@H]3C[C@@H]2C3(C)C)c(OC)c1 [HU308, {(1S,4S,5S)-4-[2,6-Dimethoxy-4-(2-methyloctan-2-yl)phenyl]-6,6-dimethylbicyclo[3.1.1]hept-2-en-2-yl}methanol, reference compound]	98	full agonists	592	76											
CCCCCCC(C)(C)c1cc(OC)c(C2=C[C@H]3CC[C@]2(CO)C3(C)C)c(OC)c1 [HU910, {(1S,4R)-2-[2,6-dimethoxy-4-(2-methyloctan-2-yl)phenyl]-7,7-dimethylbicyclo[2.2.1]hept-2-en-1-yl}methanol, reference compound]				54	significantly reduced leukocyte adhesion	significantly attenuated	full agonists	4, 98 * %	4	0.5	224				
CNC(=O)[C@@H](NC(=O)c1cc(OCC2(C)COC2)c(C2CC2)cn1)C(C)(C)C [RO6851228, 5-Cyclopropyl-N-[(2S)-3,3-dimethyl-1-(methylamino)-1-oxobutan-2-yl]-4-[(3-methyloxetan-3-yl)methoxy]pyridine-2-carboxamide]	−159	inverse agonist				increased leukocyte-adhesion; also recorded: increases leukocyte adhesion					> 30000	0.45 ± 0.47	26	>383 *	not active
Cc1nc([C@](C)(CC2CC2)NC(=O)c2cc(OCC(F)(F)F)c(C3CC3)cn2)no1 [RO6871085, 5-Cyclopropyl-N-[(2S)-1-cyclopropyl-2-(5-methyl-1,2,4-oxadiazol-3-yl)propan-2-yl]-4-(2,2,2-trifluoroethoxy)pyridine-2-carboxamide]	88	full agonists				significantly attenuated					> 30000		8	174 *	not active
CC(C)(C)c1nc(N2CC[C@H](O)C2)c2nnn(Cc3nnnn3C3CC3)c2n1 [RO6871304, (3S)-1-{5-tert-butyl-3-[(1-cyclopropyl-1H-tetrazol-5-yl)methyl]-3H-[1,2, 3]triazolo[4,5-d]pyrimidin-7-yl}pyrrolidin-3-ol]	102	full agonists		94		significantly attenuated; also recorded: most efficacious					26	0.05 ± 0.07	1		
